Earlier results, collected in patent US5672583A, “Carboxy-peptidyl derivatives as antidegenerative active agents” (Merck & Co., Inc., priority 1995, dated 1997).

Experiments:
[1] = molecular target: T1, human rheumatoid synovial collagenase (Homo sapiens, UniProt P03956); details: Delaisse et al., Biochem. Biophys. Res. Commun. 133, 483-90 (1985)
T1 sequence (P03956 100-469): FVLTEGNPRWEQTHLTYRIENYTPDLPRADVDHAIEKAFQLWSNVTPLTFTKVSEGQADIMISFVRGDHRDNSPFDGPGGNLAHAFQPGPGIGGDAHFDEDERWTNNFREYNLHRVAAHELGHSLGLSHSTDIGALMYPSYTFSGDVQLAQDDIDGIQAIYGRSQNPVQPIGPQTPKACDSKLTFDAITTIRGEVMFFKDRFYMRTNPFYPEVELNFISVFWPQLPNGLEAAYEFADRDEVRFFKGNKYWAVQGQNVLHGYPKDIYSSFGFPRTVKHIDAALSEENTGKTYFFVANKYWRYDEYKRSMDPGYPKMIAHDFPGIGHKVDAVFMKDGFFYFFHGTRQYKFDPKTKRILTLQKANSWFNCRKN

[2] = molecular target: rabbit bone proteoglycanase (Oryctolagus cuniculus, UniProt P28863); details: Delaisse et al., Biochem. Biophys. Res. Commun. 133, 483-90 (1985)
rabbit bone proteoglycanase, sequence (P28863 101-478): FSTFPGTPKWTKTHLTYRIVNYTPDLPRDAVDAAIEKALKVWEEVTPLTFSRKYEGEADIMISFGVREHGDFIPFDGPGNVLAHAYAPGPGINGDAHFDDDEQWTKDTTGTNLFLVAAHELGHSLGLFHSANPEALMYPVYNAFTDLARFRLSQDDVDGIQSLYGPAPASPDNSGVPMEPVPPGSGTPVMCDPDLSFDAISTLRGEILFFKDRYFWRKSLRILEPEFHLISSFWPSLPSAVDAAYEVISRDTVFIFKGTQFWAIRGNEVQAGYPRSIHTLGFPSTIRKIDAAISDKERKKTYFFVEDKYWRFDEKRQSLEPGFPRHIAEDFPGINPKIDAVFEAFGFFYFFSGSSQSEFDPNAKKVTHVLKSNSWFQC

IC50 [1]: 800 nM
IC50 [2]: 500 nM
SMILES: CNC(=O)[C@H](Cc1ccc(OC)cc1)NC(=O)[C@H](CC(C)C)NC(CCNC(=O)OCc1ccccc1)C(=O)O (stereo partly drawn) [N-[3-(benzyloxycarbonyl)amino-1-carboxy-n-propyl]-L-leucyl-O-methyl-L-tyrosine, N-methylamide]
